Measurements reported in BindingDB's records for doi:10.1016/j.bmcl.2015.12.061 (Auburn University, 2016).

Target: S-adenosylhomocysteine hydrolase (Homo sapiens)
Test: Inhibition of S-adenosylhomocysteine hydrolase (unknown origin)

| SMILES | IC50 |
| --- | --- |
| Nc1ncc(Br)c2c1ncn2C1=C[C@H](CO)[C@@H](O)[C@H]1O | 13 nM |
| Nc1ncc(Br)c2c1ncn2C1=C[C@@H](CO)[C@H](O)[C@@H]1O | 10000 nM |
| Nc1ncc(Br)c2c1ncn2[C@@H]1C=C(CO)[C@@H](O)[C@H]1O | 2.7 nM |
